In patent US9221868B2, “Uridine di- or tri-phosphate derivatives and uses thereof” (BAR-ILAN UNIVERSITY, priority 2010, dated 2015):
“Also recorded” adds a separate entry of the source. Read-outs that look alike come from different tables or passages of the source.

What was measured:
P2Y4-R = target: T1, P2Y4-R (Homo sapiens, UniProt P51582); experiment: [Ca2+]i increase in 1321N1 astrocytoma cells expressing P2Y4-R; format: cell-based; settings: n.d.r = no detectable response up to 100 μM
T1 construct: expressed in transfected cells; host or cells: 1321N1 astrocytoma cells
T1 sequence (P51582 whole entry): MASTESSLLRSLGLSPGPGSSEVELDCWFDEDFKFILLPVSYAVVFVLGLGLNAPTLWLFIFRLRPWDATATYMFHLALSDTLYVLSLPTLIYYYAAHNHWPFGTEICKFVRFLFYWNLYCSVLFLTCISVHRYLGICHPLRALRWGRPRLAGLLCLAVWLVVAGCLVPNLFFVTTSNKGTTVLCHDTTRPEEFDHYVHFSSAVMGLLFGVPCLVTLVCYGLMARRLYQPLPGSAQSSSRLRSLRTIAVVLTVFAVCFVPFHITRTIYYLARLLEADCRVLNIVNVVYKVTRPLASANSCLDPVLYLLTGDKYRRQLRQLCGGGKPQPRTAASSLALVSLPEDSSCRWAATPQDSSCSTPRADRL
Description: (§1) Green fluorescent protein (GFP) constructs of human P2Y2-R, P2Y4-R and P2Y6-R were expressed in 1321N1 astrocytoma cells, which lack endogenous expression of P2X- and P2Y-receptors. The respective cDNA of the receptor gene was cloned into a pEGFPN1 vector. After transfection using FuGENE 6 Transfection Reagent (Roche Molecular Biochemicals, Mannheim, Germany), the cells were selected with 0.5 mg/ml G418 (geneticine; Merck Chemicals, Darmstadt, Germany) and grown in Dulbecco's modified Eagles' medium (DMEM) supplemented with 10% fetal calf serum, 100 U/ml penicillin and […] at 37° C. and 5% CO2. The expression and cell membrane localization of the respective P2Y receptors was confirmed through the analysis of the GFP fluorescence. The functionality of the expressed GFP-labeled receptor in cells was verified by recording a change of [Ca^2+]i after stimulation with the appropriate receptor agonist.
(§2) 1321N1 astrocytoma cells transfected with the respective plasmid for P2YR-GFP expression plated on coverslips (22 mm diameter) and grown to approximately 80% density were incubated with 2 μM fura 2/AM and 0.02% pluronic acid in Na-HBS buffer (Hepes buffered saline: 145 mM NaCl, 5.4 mM KCl, 1.8 mM CaCl2, 1 mM MgCl2, 25 mM glucose, 20 mM Hepes/Tris pH 7.4) for 30 min at 37° C. The cells were superfused (1 ml/min, 37° C.) with different concentrations of nucleotide in Na-HBS buffer, and the nucleotide-induced change of [Ca^2+]i was measured by detecting the respective emission intensity of fura 2/AM at 510 nm with after 340 nm and 380 nm excitations (Ubl et al., 1998). The average maximal amplitude of the responses and the respective standard errors were calculated from the ratio of the fura 2/AM fluorescence intensities with excitations at 340 nm and 380 nm (only MT-labeled cells were analysed). Microsoft Excel (Microsoft Corp., Redmond, Wash., USA) and SigmaPlot (SPSS Inc., Chicago, Ill., USA) were used to derive the concentration-response curves and EC50 values from the average response amplitudes obtained in at least three independent experiments (Ecke et al., 2006, 2008). Only cells with a clear MT-signal and with the typical calcium response kinetics upon agonist pulse application were included in the data analysis. The GFP-tagged P2Y receptors are suitable for pharmacological and physiological studies, as previously reported (Tulapurkar et al., 2004, 2006; Zylberg et al., 2007).
(§3) In this study, analogues 13-17 were tested for their potency and selectivity at P2Y2,4,6-receptors based on measurements of increases in intracellular calcium concentrations in 1321N1 astrocytoma cells transfected with the respective plasmid, as described in Materials and Methods, and the results are summarized in Table 2.

P2Y6-R = target: T2, P2Y6-R (Homo sapiens, UniProt Q15077); experiment: [Ca2+]i increase in 1321N1 astrocytoma cells expressing P2Y6-R; format: cell-based; settings: for EC50: 1321N1 astrocytoma cells, [Ca2+]i, read-out: Potencies (EC50) at the P2Y6-R; for Activity at the P2Y6-R (in words): 1321N1 cells
T2 construct: expressed in transfected cells; host or cells: 1321N1 astrocytoma cells
T2 sequence (Q15077 whole entry): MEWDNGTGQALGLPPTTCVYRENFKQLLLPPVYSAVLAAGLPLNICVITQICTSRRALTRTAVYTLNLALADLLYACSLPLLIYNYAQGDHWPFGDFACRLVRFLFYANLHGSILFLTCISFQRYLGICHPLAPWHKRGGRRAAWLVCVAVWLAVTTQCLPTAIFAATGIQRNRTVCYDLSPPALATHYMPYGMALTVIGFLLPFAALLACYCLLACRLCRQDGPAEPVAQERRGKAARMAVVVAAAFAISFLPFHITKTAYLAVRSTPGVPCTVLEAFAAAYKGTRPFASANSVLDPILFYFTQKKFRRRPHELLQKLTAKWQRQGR
Description: as §1, §2
1321N1 cell lines stably expressing the human P2Y6 receptors were grown as previously described in DMEM (5% FBS, 100 IU/ml penicillin, 100 μg/ml streptomycin, 1× Glutamax, 10 mM Hepes and 0.5 mg/ml G-418) at 37° C. in a humidified atmosphere containing 5% CO2 and 95% air (Gendron et al., 2003).
1321N1 cells (10×10^6 cells grown in 10 cm^2 dishes) were harvested by a brief trypsin/EDTA treatment, suspended in complete culture medium, and washed by centrifugation for 3 min at 100×g before being incubated with 1 μM Fluo 4/AM in 4.5 ml HBSS with Ca^2+ and Mg^2+ (Wisent, St. Bruno, QC) for 25 min at 37° C. Cells were washed by centrifugation (100×g, 3 min), suspended in HBSS containing Ca^2+ and Mg^2+, and incubated for 25 min at 37° C. Cells were washed and suspended in 16 ml of FIBSS containing Ca^+ and Mg^2+. Cell suspension (2 ml) was gently stirred in a quartz cuvette while [Ca^2+]i and monitored on a RF-5301 PC Shimadzu spectrofluorometer with Panormama fluorescence 1.1 software (Man-Tech, Guelph, ON). Excitation wavelengths of 488 nm and emission wavelength of 520 nm were used to measure changes in intracellular Fluo 4 fluorescence intensity (F). At the end of each recording, maximal fluorescence (Fmax) and minimal fluorescence (Fmin) were determined by adding successively 0.1% Triton X-100 and 50 mM EDTA to cell suspensions. The following equation from Grynkiewicz et al. (1985) was used to relate the fluorescence intensity to Ca^2+ levels: [Ca^2+]=Kd×(F−Fmin)/(Fmax−F), wherein Kd is the Ca^+ dissociation constant of the indicator (345 nM). […]

P2Y2-R [1] = target: T3, P2Y2-R (Homo sapiens, UniProt P41231); experiment: [Ca2+]i increase in 1321N1 astrocytoma cells expressing P2Y2-R; format: cell-based; design: expressed in transfected cells; host or cells: 1321N1 astrocytoma cells
T3 sequence (P41231 whole entry): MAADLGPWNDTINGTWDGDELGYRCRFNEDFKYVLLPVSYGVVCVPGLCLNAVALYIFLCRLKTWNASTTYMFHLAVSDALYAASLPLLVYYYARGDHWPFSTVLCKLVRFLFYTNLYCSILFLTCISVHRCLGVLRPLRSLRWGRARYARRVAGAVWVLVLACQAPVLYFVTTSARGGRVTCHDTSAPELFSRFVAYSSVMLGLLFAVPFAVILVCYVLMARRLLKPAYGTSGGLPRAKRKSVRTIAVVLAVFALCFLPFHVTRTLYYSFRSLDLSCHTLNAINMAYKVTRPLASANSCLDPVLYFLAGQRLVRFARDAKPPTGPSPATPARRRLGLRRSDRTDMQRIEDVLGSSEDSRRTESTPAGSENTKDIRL
Description: as §1, §2, §3

P2Y2-R [2] = target: T3, P2Y2-R; settings: Ginsburg-Shmuel et al., 2010; read-out: EC50 at P2Y2-R (literature); cited from earlier work
physchem = settings: for Rate constant of phosphate ester hydrolysis at pH 1.4: pH 1.4, 37° C., pseudo-first-order
Description: All stability experiments were performed in duplicates.
The stability of UDP, 11, 12 and 13A in a buffer solution (pH 1.4) was evaluated by ^31P NMR at 37° C. for monitoring possible dephosphorylation products (the signal of the phosphate hydrolysis products is at ˜0 ppm, while that of the borano phosphate analogues is at ˜85 ppm). NMR spectra were recorded on a Bruker DMX-600 spectrometer with a ^31P NMR probe (isotope frequency of 240 MHz) using 85% H3PO4 as an external reference.
Sodium salts of UDP, 11, 12 and 13A were dissolved in 0.45 ml of KCl/HCl buffer (pH 1.4) and D2O (0.05 ml) was added. The final pH was adjusted to pH 1.4. pH measurements were performed with an Metrohm pH electrode and a Metrohm 827 meter. Spectra were recorded at 15 min, 1 h, or 24 h time intervals at 37° C. For experiments that were several days long, the solution was kept in an oil bath at 37° C. and spectra were recorded at ca. 24 h time intervals. The phosphate ester hydrolysis rate was determined by measuring the change of the integration of one of the phosphates signals of the starting material with time.

P2Y2 receptor = P2Y2 receptor (Rattus norvegicus, UniProt P41232); settings: compared to ATP and UTP; Tulapurkar et al., 2004; cited from earlier work
Chain of P2Y2 receptor (P41232 whole entry): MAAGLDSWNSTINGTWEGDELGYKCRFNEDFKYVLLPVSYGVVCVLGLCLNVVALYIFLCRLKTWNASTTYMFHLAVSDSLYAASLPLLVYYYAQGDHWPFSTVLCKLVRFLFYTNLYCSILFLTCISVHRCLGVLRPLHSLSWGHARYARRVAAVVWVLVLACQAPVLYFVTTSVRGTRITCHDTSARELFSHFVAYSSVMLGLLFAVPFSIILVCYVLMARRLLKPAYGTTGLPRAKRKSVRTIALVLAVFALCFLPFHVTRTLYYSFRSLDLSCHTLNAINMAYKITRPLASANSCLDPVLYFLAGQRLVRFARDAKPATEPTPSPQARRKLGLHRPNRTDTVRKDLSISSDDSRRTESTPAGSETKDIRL

[3] = tested on: intraocular pressure in normotense rabbits; settings: cited from earlier work
[4] = 1321N1 astrocytoma cells, [Ca2+]i, n.d.r = no detectable response up to 100 μM

| Compound | Potencies (EC50) at the P2Y4-R (P2Y4-R) | EC50 (P2Y6-R) | Potencies (EC50) at the P2Y2-R (P2Y2-R [1]; [4]) | also measured |
| --- | --- | --- | --- | --- |
| [BH3-][P+](O)(OC[C@H]1O[C@@H](n2cc(OC)c(=O)[nH]c2=O)[C@H](O)[C@@H]1O)OP(=O)(O)OP(=O)(O)O (single isomer, unassigned) [Analogue 14B, 5-methoxyuridine-5′-O-(α-boranotriphosphate)] | n.d.r | 20100 ± 700 nM | n.d.r |  |
| O=c1ccn([C@@H]2O[C@H](COP(=O)(O)OP(=O)(O)OP(=O)(O)O)[C@@H](O)[C@H]2O)c(=O)[nH]1 [UTP, reference compound] |  |  |  | EC50 (P2Y4-R; read-out: Potencies (EC50) at the P2Y4-R): 900 nM; EC50 (P2Y2-R [2]): 100 nM; EC50 (P2Y2-R [1]; 1321N1 astrocytoma cells, [Ca2+]i, n.d.r = no detectable response up to 100 μM, read-out: Potencies (EC50) at the P2Y2-R): 140 nM |
| BP(=O)(OCC1OC(n2cc(OC)c(=O)[nH]c2=O)C(O)C1O)OP(=O)(O)O (stereo not drawn) [Analogue 13, 5-methoxyuridine-5′-O-(α-boranodiphosphate)] |  |  |  | Half-life (t1/2) of hydrolysis at pH 1.4 (physchem; buffer, pH 1.4): 16.9 h; Rate constant of phosphate ester hydrolysis at pH 1.4 (physchem): 1.31×10^−5 s^−1 |
| [BH3-][P+](O)(OCC1OC(n2cc(OC)c(=O)[nH]c2=O)C(O)C1O)OP(=O)(O)OP(=O)(O)OCC1OC(n2cc(OC)c(=O)[nH]c2=O)C(O)C1O (single isomer, unassigned) [Analogue 16A, di-(5-OMe)-uridine 5′,5″-P^1,P^3,α-boranotriphosphate] | n.d.r | 60 nM | n.d.r | Less potent than mono-nucleotide counterpart 13A at P2Y6-R (P2Y6-R; ratio of EC50 values): about 9 times |
| BP(=O)(OC[C@H]1O[C@@H](n2cc(OC)c(=O)[nH]c2=O)[C@H](O)[C@@H]1O)OP(=O)(O)OP(=O)(O)O (stereo partly drawn) [Analogue 14, 5-methoxyuridine-5′-O-(α-boranotriphosphate)] |  |  |  | Activity at the P2Y6-R (in words) (P2Y6-R): hardly active; Activity at the P2Y2-receptor (in words) (P2Y2-R [1]; 1321N1 cells): completely inactive |
| [BH3-][P+](O)(OCC1OC(n2cc(OC)c(=O)[nH]c2=O)C(O)C1O)OP(=O)(O)OP(=O)(O)OCC1OC(n2cc(OC)c(=O)[nH]c2=O)C(O)C1O (single isomer, unassigned) [Analogue 16B, di-(5-OMe)-uridine 5′,5″-P^1,P^3,α-boranotriphosphate] | n.d.r | 2200 nM | n.d.r |  |
| [BH3-][P+](O)(OP(=O)(O)OC[C@H]1O[C@@H](n2cc(OC)c(=O)[nH]c2=O)[C@H](O)[C@@H]1O)OP(=O)(O)OC[C@H]1O[C@@H](n2cc(OC)c(=O)[nH]c2=O)[C@H](O)[C@@H]1O [Analogue 17, di-(5-OMe)-uridine 5″5″-P^1,P^3,β-boranotriphosphate] | n.d.r | 200 nM | n.d.r |  |
| [BH3-][P+](O)(OC[C@H]1O[C@@H](n2ccc(=O)[nH]c2=O)[C@H](O)[C@@H]1O)OP(=O)(O)O (stereo partly drawn) [Analogue 11, Uridine-5′-O-(α-boranodiphophate), reference compound] |  |  |  | Half-life in human blood serum: 21 h; Rate constant of phosphate ester hydrolysis at pH 1.4 (physchem): 1.14×10^−5 s^−1 |
| BP(=O)(OC[C@H]1O[C@@H](n2cnc3c(N)ncnc32)[C@H](O)[C@@H]1O)OP(=O)(O)OP(=O)(O)O (stereo partly drawn) [ATP(α-B)] |  |  |  | Response at the P2Y2 receptor (in words, literature) (P2Y2 receptor): very weak response |
| [BH3-][P+](O)(OCC1OC(n2cc(OC)c(=O)[nH]c2=O)C(O)C1O)OP(=O)(O)O (single isomer, unassigned) [Analogue 13B, 5-methoxyuridine-5′-O-(α-boranodiphosphate)] | n.d.r | 4300 nM | n.d.r |  |
| [BH3-][P+](O)(OC[C@H]1O[C@@H](n2cc(OC)c(=O)[nH]c2=O)[C@H](O)[C@@H]1O)OP(=O)(O)OP(=O)(O)O (single isomer, unassigned) [Analogue 14A, 5-methoxyuridine-5′-O-(α-boranotriphosphate)] | n.d.r | 11200 ± 630 nM | n.d.r |  |
| CSc1nc(N)c2ncn([C@@H]3O[C@H](COP(=O)(O)OP(=O)(O)C(Cl)(Cl)P(=O)(O)O)[C@@H](O)[C@H]3O)c2n1 [2MeS-adenosine-β,γ-CCl2-5′-triphosphate] |  |  |  | Duration of effect on IOP (literature) [3]: about 5 hours; Reduction of IOP (literature) [3]: 32%; EC50 ([3]; read-out: EC50 of IOP reduction (literature)): 95.5 nM |
| COc1cn([C@@H]2O[C@H](COP(=O)(O)OP(=O)(O)OP(=O)(O)OC[C@H]3O[C@@H](n4cc(OC)c(=O)[nH]c4=O)[C@H](O)[C@@H]3O)[C@@H](O)[C@H]2O)c(=O)[nH]c1=O [Analogue 15, di-(5-OMe)-uridine 5′,5″-P^1,P^3, triphosphate] | n.d.r | > 10000 nM | n.d.r | Activity at the P2Y6-R (in words) (P2Y6-R): least active P2Y6-R agonist; also recorded: weakest potency among the tested nucleotides |
